Measured values from PMC5829251, “NAD^+ analog reveals PARP-1 substrate-blocking mechanism and allosteric communication from catalytic center to DNA-binding domains” (Nature Communications, 2018).
“And” between values parts separate entries of the source, which are not always exact repeats. Equal values may be shown once.

Key:
full-length PARP-1 = biological target: T1, full-length PARP-1 (Homo sapiens, UniProt P09874); assay: Colorimetric assay of full-length PARP-1 DNA-dependent activity; assay type: biochemical; conditions: for IC50: 20 nM PARP-1, 40 nM DNA (18-bp duplex), 50 μM NAD+ (99:1 NAD+:bio-NAD+)
T1 construct: Full-length PARP-1 WT (residues 1–1014) was cloned in pET28 vector; made in house; host or cells: E. coli
T1 sequence (P09874 whole entry, the tested form may be a part): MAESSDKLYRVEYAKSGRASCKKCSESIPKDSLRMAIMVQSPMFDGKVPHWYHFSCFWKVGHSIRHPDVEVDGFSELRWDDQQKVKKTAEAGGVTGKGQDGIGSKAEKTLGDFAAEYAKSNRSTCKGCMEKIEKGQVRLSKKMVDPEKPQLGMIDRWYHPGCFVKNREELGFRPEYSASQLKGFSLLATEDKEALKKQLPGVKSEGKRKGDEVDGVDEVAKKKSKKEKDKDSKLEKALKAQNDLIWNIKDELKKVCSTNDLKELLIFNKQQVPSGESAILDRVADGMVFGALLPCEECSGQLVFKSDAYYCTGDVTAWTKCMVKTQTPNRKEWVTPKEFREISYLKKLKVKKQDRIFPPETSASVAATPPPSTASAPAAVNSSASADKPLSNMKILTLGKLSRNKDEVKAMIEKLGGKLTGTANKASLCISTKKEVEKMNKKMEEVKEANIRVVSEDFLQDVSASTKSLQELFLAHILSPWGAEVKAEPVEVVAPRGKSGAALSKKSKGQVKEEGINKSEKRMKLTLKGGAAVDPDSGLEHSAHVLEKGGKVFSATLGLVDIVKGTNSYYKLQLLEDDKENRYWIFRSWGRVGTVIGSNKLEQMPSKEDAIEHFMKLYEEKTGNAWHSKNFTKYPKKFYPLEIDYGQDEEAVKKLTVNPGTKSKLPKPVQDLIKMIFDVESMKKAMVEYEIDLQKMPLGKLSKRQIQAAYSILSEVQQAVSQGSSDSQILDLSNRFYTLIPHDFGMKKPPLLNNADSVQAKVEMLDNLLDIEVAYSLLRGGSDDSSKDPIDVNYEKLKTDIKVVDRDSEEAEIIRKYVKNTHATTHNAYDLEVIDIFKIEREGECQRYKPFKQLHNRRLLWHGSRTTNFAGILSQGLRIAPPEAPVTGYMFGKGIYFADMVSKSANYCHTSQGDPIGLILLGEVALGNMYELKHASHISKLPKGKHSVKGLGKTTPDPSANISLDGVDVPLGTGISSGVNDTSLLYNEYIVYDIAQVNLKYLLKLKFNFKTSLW
Description: The colorimetric assay was performed as described, [28] using 20 nM of protein and 40 nM DNA (18-bp duplex). A mixture of NAD^+ and biotinylated NAD^+ (bio-NAD^+) was used at a 99:1 ratio and a final concentration of 50 µM. Reactions were allowed to proceed for 5 min before quenching. Three independent experiments were performed.

PARP-1 = biological target: T2, PARP-1 (Homo sapiens, UniProt P09874); assay: HXMS analysis of PARP-1 dynamics; conditions: for HX of an ART active site peptide (a.a. 901–917): 10^4 s time point, PARP-1 alone or in complex with DNA
T2 construct: Full-length PARP-1 WT (residues 1–1014) was cloned in pET28 vector; made in house; host or cells: E. coli
T2 sequence (P09874 whole entry, the tested form may be a part): as above
Description: Deuterium on-exchange was carried out at RT by mixing 5 µL of each sample (8 µM concentration) with 15 µL of deuterium on-exchange buffer (10 mM HEPES, pD 7.0, 150 mM NaCl, in D2O) yielding a final D2O concentration of 75%. pD values for deuterium-based buffers were calculated as pD = pH + 0.41[38]. Upon mixing with on-exchange buffer, the amide protons will be replaced over time with deuterons yielding an increased peptide mass. To quench the deuterium exchange reaction, the sample (20 µl) was mixed with 30 µl of ice-cold quench buffer (1.66 M guanidine hydrochloride, 10% glycerol, and 0.8% formic acid, for a final pH of 2.4–2.5) and rapidly frozen in liquid nitrogen. For the MS analysis, each sample (50 µL) was melted on ice and loaded onto an in-house packed pepsin column for digestion. Pepsin (Sigma) was coupled to POROS 20 AL support (Applied Biosystems), and the immobilized pepsin was packed into a column housing (2 mm × 2 cm, Upchurch). Pepsin-digested peptides were captured on TARGA C8 5 µm Piccolo HPLC column (1.0 × 5.0 mm, Higgins Analytical) and eluted through an analytical C18 HPLC column (0.3 × 75 mm, Agilent) by a shaped 12–100% buffer B gradient at 6 µL per min (Buffer A: 0.1% formic acid; Buffer B: 0.1% formic acid, 99.9% acetonitrile). The effluent was electrosprayed into the mass spectrometer. Non-deuterated (ND) PARP-1 samples were prepared in 10 mM HEPES, pH 7.0, 150 mM NaCl buffer, and mixed with the quench buffer to mimic the samples from on-exchange reaction. Peptides of ND samples were analyzed in tandem MS (LTQ Orbitrap XL, Thermo Fisher Scientific). We analyzed MS/MS data collected from these samples to identify potential PARP-1 peptides using SEQUEST (Bioworks v3.3.1, Thermo Fisher Scientific) with a peptide tolerance of 8 ppm and a fragment tolerance of 0.1 AMU. Deuterated samples were then analyzed on an Exactive Plus EMR-Orbritrap (Thermo Fisher Scientific). A MATLAB based program, ExMS[39] was used for HXMS data processing. […] The level of deuteration of individual peptides was measured by comparing them to the ND sample. […] For each peptide, we compare the extent of deuteration as measured in the FD sample to the theoretical maximal deuteration (i.e., if no back-exchange occurs); the median extent of back-exchange in our datasets is only 15%.
Peptide plotting and calculations were performed in MATLAB. […] For comparing two different HXMS datasets, we plot the percent difference of each peptide, which is calculated by subtracting the percent deuteration of one sample from that of another, and plotted according to the color legend in stepwise increments (as in Fig. 5b). […]

PARP-1 CAT ΔHD = biological target: T3, PARP-1 CAT ΔHD (Homo sapiens, UniProt P09874); assay: ITC, PARP-1 CAT ΔHD; assay type: binding; conditions: for n (stoichiometry): CAT ΔHD; for Kd: CAT ΔHD 50 μM, compound 525 μM titrated, 25°C
T3 construct: a pET28 construct coding for PARP-1 residues 661-1011; made in house; host or cells: E. coli
T3 sequence (P09874 with tags, fused parts or gaps): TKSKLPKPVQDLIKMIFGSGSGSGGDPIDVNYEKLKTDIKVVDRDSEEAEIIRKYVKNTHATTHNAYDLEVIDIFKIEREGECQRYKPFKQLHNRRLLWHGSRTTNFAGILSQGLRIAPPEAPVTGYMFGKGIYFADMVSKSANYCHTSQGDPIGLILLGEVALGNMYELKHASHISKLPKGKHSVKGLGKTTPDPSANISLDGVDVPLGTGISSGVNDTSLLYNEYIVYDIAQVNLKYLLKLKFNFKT
Description: (§1) ITC experiments were performed using a MicroCal iTC200 calorimeter (GE Healthcare). BAD or benzamide at 525 μM was titrated into PARP-1 protein (50 μM for CAT WT and CAT ΔHD, 40 μM for full-length PARP-1 WT and mutants) or PARP-1 protein with DNA (20–40 μM) at 25°C. Prior to the experiment, proteins and DNA were dialyzed in 25 mM Hepes pH 8.0, 150 mM NaCl, 1 mM EDTA, and 0.1 mM TCEP. BAD and benzamide were diluted in the dialysis buffer. PARP-1/DNA complexes were assembled and incubated at RT for 30 min prior to performing the experiment. Experiments were typically designed as follows: a first injection of 0.2 μL was followed by 16 injections of 2.5 μL with a spacing of 100 s between injections. Excess heat upon each injection was integrated using an automatically adjusted base line and derived values corrected by heat of dilution. Data analysis and curve fitting were conducted using Origin 7 software. The ITC experiment for each sample was performed either two (PARP-1 WT with benzamide, PARP-1 E763/D766/D770A with benzamide, PARP-1 D766/D770A with BAD) or three times (the remaining eight samples). Table 2 lists the average KD value and stoichiometry (n) for the replicates, and the reported errors are the calculated standard deviations (representing the range of values for experiments repeated two times). We anticipate that the sub-stoichiometric n values for CAT constructs results from either the active fraction being < 100%, or the protein concentration determination being not entirely accurate. The analysis of full-length PARP-1 yielded n values around the expected value of 1.

full-length PARP-1 WT = biological target: T4, full-length PARP-1 WT (Homo sapiens, UniProt P09874); assay: ITC, full-length PARP-1 WT with or without DNA; assay type: binding; conditions: for KD / Kd: compound 525 μM titrated, 25°C
T4 construct: Full-length PARP-1 WT (residues 1–1014) was cloned in pET28 vector; made in house; host or cells: E. coli
T4 sequence (P09874 whole entry, the tested form may be a part): as the sequence (P09874 whole entry, the tested form may be a part) above
Description: as §1

`NC(=O)c1cccc(C2OC(COP(=O)(O)OP(=O)(O)OCC3OC(n4cnc5c(N)ncnc54)C(O)C3O)C(O)C2O)c1` (centres unmarked) [BAD, benzamide adenine dinucleotide] was tested, and the IC50 (full-length PARP-1) was 8.6 µM and 8.63 µM, the “HX in peptides localized to HD helices αB and αF” value (PARP-1; 10^2 s time point, PARP-1 bound to a DNA strand break) was “increased HX” and the “HX of an ART active site peptide (a.a. 901–917)” value (PARP-1) was “only observed with PARP-1 in complex with DNA”. For the same compound, the “HX in regions outside of the CAT (domain-domain and domain-DNA interfaces)” value (PARP-1; PARP-1 in complex with DNA, not in the absence of DNA) was “decrease in HX”, the “n (stoichiometry)” value (PARP-1 CAT ΔHD) was 0.63 + /− 0.09 and the Kd (PARP-1 CAT ΔHD) was 5.87 µM. The KD (full-length PARP-1 WT; FL WT 40 μM, without DNA) was “no evidence of BAD binding”, the “n (stoichiometry)” value (full-length PARP-1 WT; FL WT with DNA) was 1.11 + /− 0.29 and the Kd (full-length PARP-1 WT; FL WT with DNA (40 μM, 8 bp-duplex)) was 1.8 µM and 1.81 µM.
In the case of `NC(=O)c1ccccc1` [benzamide], the IC50 (full-length PARP-1) is reported as 4.6 µM and 4.62 µM, the “inhibition of DNA damage-dependent activity of full-length PARP-1” value (full-length PARP-1; 20 nM PARP-1, 40 nM DNA, 50 μM NAD+) is reported as “inhibits to a similar extent as the entire BAD molecule” and the “HX of an ART active site peptide (a.a. 901–917)” value (PARP-1) is reported as “decreased HX in the same ART peptide for both PARP-1 alone and PARP-1 in complex with DNA”. For the same compound, the “n (stoichiometry)” value (PARP-1 CAT ΔHD) was 0.39 + /− 0.01, the Kd (PARP-1 CAT ΔHD) was 3.21 µM and the KD (full-length PARP-1 WT; FL WT 40 μM, without DNA) was “bound to benzamide in the absence of DNA”. For the same compound, the Kd (full-length PARP-1 WT; FL WT 40 μM, without DNA) was 2.32 µM and the “n (stoichiometry)” value (full-length PARP-1 WT; FL WT, without DNA) was 0.88 + /− 0.01.
